From ChEMBL document CHEMBL3745613, “Fragment-assisted hit investigation involving integrated HTS and fragment screening: Application to the identification of phosphodiesterase 10A (PDE10A) inhibitors” (Bioorg Med Chem Lett, 2016)
Values after ≈ are worked out from the molar mass of the structure shown.

Assays:
[1] = Equilibrium solubility of the compound in phosphate buffer at pH 7.4; format: physicochemical
[2] = target: T1, cAMP and cAMP-inhibited cGMP 3',5'-cyclic phosphodiesterase 10A (Homo sapiens, UniProt Q9Y233); assay: Inhibition of human recombinant PDE10A using cAMP as substrate preincubated for 20 mins followed by substrate addition measured after 2 hrs by FRET assay
T1 sequence (Q9Y233 whole entry): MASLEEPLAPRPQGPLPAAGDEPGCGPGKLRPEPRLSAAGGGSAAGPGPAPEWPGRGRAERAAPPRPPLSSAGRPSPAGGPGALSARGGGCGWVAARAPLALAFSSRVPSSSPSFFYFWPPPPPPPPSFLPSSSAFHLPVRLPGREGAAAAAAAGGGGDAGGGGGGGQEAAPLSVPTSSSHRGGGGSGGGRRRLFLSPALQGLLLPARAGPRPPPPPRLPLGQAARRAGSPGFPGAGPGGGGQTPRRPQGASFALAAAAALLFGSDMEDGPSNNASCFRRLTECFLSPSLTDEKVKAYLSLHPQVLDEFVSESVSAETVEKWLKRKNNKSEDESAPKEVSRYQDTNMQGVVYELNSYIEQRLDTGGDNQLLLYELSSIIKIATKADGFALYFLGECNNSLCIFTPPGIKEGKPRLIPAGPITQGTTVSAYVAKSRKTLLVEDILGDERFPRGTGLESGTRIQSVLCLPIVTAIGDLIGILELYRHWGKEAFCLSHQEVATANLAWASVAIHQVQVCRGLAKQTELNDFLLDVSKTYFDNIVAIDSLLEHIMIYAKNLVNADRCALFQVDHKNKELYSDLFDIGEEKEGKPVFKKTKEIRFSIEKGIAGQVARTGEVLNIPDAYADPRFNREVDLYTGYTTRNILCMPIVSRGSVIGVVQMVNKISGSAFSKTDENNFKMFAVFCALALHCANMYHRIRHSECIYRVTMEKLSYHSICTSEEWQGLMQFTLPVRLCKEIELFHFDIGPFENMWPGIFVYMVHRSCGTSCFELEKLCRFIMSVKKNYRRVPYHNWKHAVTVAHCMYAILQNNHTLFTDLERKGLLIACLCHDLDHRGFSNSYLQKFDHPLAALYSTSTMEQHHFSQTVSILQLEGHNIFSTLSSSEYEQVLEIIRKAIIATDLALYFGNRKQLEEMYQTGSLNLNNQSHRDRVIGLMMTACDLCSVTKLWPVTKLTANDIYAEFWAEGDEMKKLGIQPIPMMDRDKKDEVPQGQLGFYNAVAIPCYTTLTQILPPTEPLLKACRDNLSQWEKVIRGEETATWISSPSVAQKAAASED

[3] = target: cGMP-dependent 3',5'-cyclic phosphodiesterase (Homo sapiens, UniProt O00408); assay: Inhibition of human recombinant PDE2A using cAMP as substrate preincubated for 20 mins followed by substrate addition measured after 2 hrs by FRET assay
Chain of cGMP-dependent 3',5'-cyclic phosphodiesterase (O00408 whole entry): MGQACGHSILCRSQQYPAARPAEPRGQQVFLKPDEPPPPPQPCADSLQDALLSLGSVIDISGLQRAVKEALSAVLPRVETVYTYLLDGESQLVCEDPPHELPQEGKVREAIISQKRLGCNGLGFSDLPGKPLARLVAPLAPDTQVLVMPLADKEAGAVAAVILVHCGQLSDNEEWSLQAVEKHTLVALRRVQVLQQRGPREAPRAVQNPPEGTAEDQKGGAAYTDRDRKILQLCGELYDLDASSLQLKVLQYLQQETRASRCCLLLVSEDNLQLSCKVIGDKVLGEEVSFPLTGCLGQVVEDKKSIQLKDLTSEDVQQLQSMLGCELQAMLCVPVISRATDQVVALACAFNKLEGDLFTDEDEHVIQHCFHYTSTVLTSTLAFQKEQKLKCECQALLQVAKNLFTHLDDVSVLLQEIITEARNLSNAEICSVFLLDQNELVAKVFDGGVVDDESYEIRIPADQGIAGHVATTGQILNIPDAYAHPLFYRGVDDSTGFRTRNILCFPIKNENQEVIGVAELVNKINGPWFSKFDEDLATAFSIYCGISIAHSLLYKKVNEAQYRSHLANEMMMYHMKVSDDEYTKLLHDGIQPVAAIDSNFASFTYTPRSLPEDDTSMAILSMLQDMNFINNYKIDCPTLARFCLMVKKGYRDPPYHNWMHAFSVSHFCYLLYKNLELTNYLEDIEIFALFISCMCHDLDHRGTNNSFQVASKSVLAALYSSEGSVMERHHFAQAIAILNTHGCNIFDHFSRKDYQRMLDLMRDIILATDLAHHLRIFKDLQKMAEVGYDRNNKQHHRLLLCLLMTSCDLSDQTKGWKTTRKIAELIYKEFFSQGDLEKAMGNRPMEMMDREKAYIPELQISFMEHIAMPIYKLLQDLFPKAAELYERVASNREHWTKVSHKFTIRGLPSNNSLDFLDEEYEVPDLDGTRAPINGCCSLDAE

[4] = target: T1, cAMP and cAMP-inhibited cGMP 3',5'-cyclic phosphodiesterase 10A; assay: Binding affinity to human recombinant PDE10A after 15 mins by surface plasmon resonance assay
[5] = target: T1, cAMP and cAMP-inhibited cGMP 3',5'-cyclic phosphodiesterase 10A; assay: Inhibition of human recombinant PDE10A using cAMP as substrate at 30 uM preincubated for 20 mins followed by substrate addition measured after 2 hrs by FRET assay

Row | Structure (SMILES) | solubility thermodynamic [1] [µM] | IC50 [2] [nM] | IC50 [3] [µM] | IC50 [4] [µM] | inhibition [5] [%]
1 | Cc1nocc1C(=O)Nc1cc(-c2nc3ccccc3[nH]2)[nH]n1 | 2 (≈ 0.617 µg/mL) | 3800 |  |  | 
2 | Cc1c(Cl)cccc1C(=O)Nc1cc(-c2nc3ccccc3[nH]2)[nH]n1 | < 1 | 100 | > 100 |  | 
3 | N#Cc1cccc(C(=O)Nc2ncc(-c3nc4ccccc4n3CCN)s2)c1 | 13 (≈ 5.05 µg/mL) | 490 |  |  | 
4 | Cc1cccc(C(=O)Nc2cc(-c3nc4ccccc4[nH]3)[nH]n2)c1Cl | < 1 | 280 |  |  | 
5 | N#Cc1cccc(C(=O)Nc2ncc(-c3nc4ccccc4[nH]3)s2)c1 | 1 (≈ 0.345 µg/mL) | 110 | > 100 |  | 
6 | Cn1c(-c2cnc(NC(=O)c3cccc(C#N)c3)s2)nc2ccccc21 | < 1 | 120 |  |  | 
7 | Cc1csc(-c2ccccn2)n1 |  |  |  | 324 | 
8 | Cc1cc(-c2ccco2)[nH]n1 |  |  |  | 851 | 
9 | Cc1c(Cl)cccc1C(=O)Nc1ncc(-c2nc3ccccc3n2C)s1 | < 1 | 16 | > 100 |  | 
10 | CS(=O)(=O)c1cccc(C(=O)Nc2cc(-c3nc4ccccc4[nH]3)[nH]n2)c1 |  | > 30000 |  |  | 23
